Assay results: ChEMBL document CHEMBL1201862, “PubChem BioAssay data set” (2004)
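Interpolation was linear, between the two tested concentrations surrounding the appropriate level; five concentrations were tested over 48 hours in 96-well plates. GI50: concentration for 50% inhibition of growth.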 Active and inactive are the calls of the source. Rule as the data show it: active = GI50 up to about 1.1 µM and inactive = higher.

Columns and labels:
Assay in all cases: NCI tumour cell line growth inhibition, 48 h
BT-549 = system: BT-549
CCRF-CEM = system: CCRF-CEM
LOX IMVI = system: LOX IMVI
KM12 = system: KM12
OVCAR-5 = system: OVCAR-5
TK-10 = system: TK-10
SK-MEL-5 = system: SK-MEL-5
ACHN = system: ACHN
HOP-62 = system: HOP-62
U-251 = system: U-251
HCT-15 = system: HCT-15
RPMI-8226 = system: RPMI-8226
NCI-H460 = system: NCI-H460
786-0 = system: 786-0
OVCAR-3 = system: OVCAR-3
RXF 393 = system: RXF 393
KM-20L2 = system: KM-20L2
SR = system: SR
SN12C = system: SN12C
MDA-N = system: MDA-N
HCC 2998 = system: HCC 2998
UACC-257 = system: UACC-257
SK-MEL-2 = system: SK-MEL-2
HL-60 = system: HL-60
A549 = system: A549
IGROV-1 = system: IGROV-1
MDA-MB-435 = system: MDA-MB-435
RXF 631 = system: RXF 631
SNB-75 = system: SNB-75
HOP-92 = system: HOP-92
MDA-MB-231 = system: MDA-MB-231
SF-268 = system: SF-268
LXFL 529 = system: LXFL 529
XF498 = system: XF498
K562 = system: K562
T47D = system: T47D
SW-620 = system: SW-620
SK-OV-3 = system: SK-OV-3
EKVX = system: EKVX
COLO 205 = system: COLO 205
NCI-H522 = system: NCI-H522
OVCAR-4 = system: OVCAR-4
SNB-78 = system: SNB-78
HT-29 = system: HT-29
NCI-H23 = system: NCI-H23
Hs-578T = system: Hs-578T
M19-MEL = system: M19-MEL
DU-145 = system: DU-145
DMS-114 = system: DMS-114
HCT-116 = system: HCT-116
UO-31 = system: UO-31
CAKI-1 = system: CAKI-1
A498 = system: A498
DMS-273 = system: DMS-273
HOP-18 = system: HOP-18
SF-539 = system: SF-539
M14 = system: M14
SK-MEL-28 = system: SK-MEL-28
SNB-19 = system: SNB-19
NCI-H226 = system: NCI-H226
Malme-3M = system: Malme-3M
MOLT-4 = system: MOLT-4
PC-3 = system: PC-3
DLD-1 = system: DLD-1
OVCAR-8 = system: OVCAR-8
SF-295 = system: SF-295
UACC-62 = system: UACC-62

**Q.** `O=C(c1ccc(Cl)cc1)C1OC12C(=O)Nc1ccccc12` (configuration not stated) was tested. Which GI50 (BT-549) did it give?
**A.** 6.93 µM (inactive)

**Q.** What about the GI50 (CCRF-CEM) of the same compound?
**A.** 0.388 µM (active)

**Q.** And the GI50 (LOX IMVI)?
**A.** 1.45 µM (inactive)

**Q.** And the GI50 (KM12)?
**A.** 15.6 µM (inactive)

**Q.** And the GI50 (OVCAR-5)?
**A.** 19.2 µM (inactive)

**Q.** And the GI50 (TK-10)?
**A.** 20.7 µM (inactive)

**Q.** And the GI50 (SK-MEL-5)?
**A.** 12.1 µM (inactive)

**Q.** What about the GI50 (ACHN) of the same compound?
**A.** 15.1 µM (inactive)

**Q.** And the GI50 (HOP-62)?
**A.** 35.1 µM (inactive)

**Q.** And the GI50 (U-251)?
**A.** 17.3 µM (inactive)

**Q.** What about the GI50 (HCT-15) of the same compound?
**A.** 4.74 µM

**Q.** What about the GI50 (RPMI-8226) of the same compound?
**A.** 2.4 µM (inactive)

**Q.** And the GI50 (NCI-H460)?
**A.** 18.5 µM (inactive)

**Q.** What about the GI50 (786-0) of the same compound?
**A.** 11.7 µM (inactive)

**Q.** What about the GI50 (OVCAR-3) of the same compound?
**A.** 24.6 µM (inactive)

**Q.** And the GI50 (RXF 393)?
**A.** 15.4 µM (inactive)

**Q.** What about the GI50 (KM-20L2) of the same compound?
**A.** 19.4 µM (inactive)

**Q.** And the GI50 (SR)?
**A.** 0.731 µM (active)

**Q.** What about the GI50 (SN12C) of the same compound?
**A.** 6.01 µM (inactive)

**Q.** And the GI50 (MDA-N)?
**A.** 3.64 µM (inactive)

**Q.** And the GI50 (HCC 2998)?
**A.** 19.9 µM (inactive)

**Q.** What about the GI50 (UACC-257) of the same compound?
**A.** 13.8 µM (inactive)

**Q.** And the GI50 (SK-MEL-2)?
**A.** 7.6 µM (inactive)

**Q.** What about the GI50 (HL-60) of the same compound?
**A.** 0.349 µM (active)

**Q.** What about the GI50 (A549) of the same compound?
**A.** 23.9 µM (inactive)

**Q.** And the GI50 (IGROV-1)?
**A.** 19.8 µM (inactive)

**Q.** What about the GI50 (MDA-MB-435) of the same compound?
**A.** 16.9 µM (inactive)

**Q.** What about the GI50 (RXF 631) of the same compound?
**A.** 17 µM (inactive)

**Q.** And the GI50 (SNB-75)?
**A.** 17.1 µM (inactive)

**Q.** What about the GI50 (HOP-92) of the same compound?
**A.** 10.8 µM (inactive)

**Q.** What about the GI50 (MDA-MB-231) of the same compound?
**A.** 21 µM (inactive)

**Q.** What about the GI50 (SF-268) of the same compound?
**A.** 16.8 µM (inactive)

**Q.** And the GI50 (LXFL 529)?
**A.** 3.08 µM (inactive)

**Q.** What about the GI50 (XF498) of the same compound?
**A.** 12.5 µM (inactive)

**Q.** What about the GI50 (K562) of the same compound?
**A.** 0.658 µM (active)

**Q.** What about the GI50 (T47D) of the same compound?
**A.** 16.3 µM (inactive)

**Q.** And the GI50 (SW-620)?
**A.** 3.52 µM (inactive)

**Q.** And the GI50 (SK-OV-3)?
**A.** 25.1 µM (inactive)

**Q.** What about the GI50 (EKVX) of the same compound?
**A.** 18.1 µM (inactive)

**Q.** And the GI50 (COLO 205)?
**A.** 2.86 µM (inactive)

**Q.** And the GI50 (NCI-H522)?
**A.** 1.91 µM (inactive)

**Q.** What about the GI50 (OVCAR-4) of the same compound?
**A.** 19.1 µM (inactive)

**Q.** What about the GI50 (SNB-78) of the same compound?
**A.** 16 µM (inactive)

**Q.** And the GI50 (HT-29)?
**A.** 8.51 µM (inactive)

**Q.** What about the GI50 (NCI-H23) of the same compound?
**A.** 15.5 µM (inactive)

**Q.** And the GI50 (Hs-578T)?
**A.** 16.5 µM (inactive)

**Q.** And the GI50 (M19-MEL)?
**A.** 10.4 µM (inactive)

**Q.** What about the GI50 (DU-145) of the same compound?
**A.** 19.1 µM (inactive)

**Q.** What about the GI50 (DMS-114) of the same compound?
**A.** 12.4 µM (inactive)

**Q.** What about the GI50 (HCT-116) of the same compound?
**A.** 3.61 µM (inactive)

**Q.** And the GI50 (UO-31)?
**A.** 15.8 µM (inactive)

**Q.** And the GI50 (CAKI-1)?
**A.** 6.71 µM (inactive)

**Q.** What about the GI50 (A498) of the same compound?
**A.** 19.7 µM (inactive)

**Q.** What about the GI50 (DMS-273) of the same compound?
**A.** 12.7 µM (inactive)

**Q.** And the GI50 (HOP-18)?
**A.** 13.9 µM (inactive)

**Q.** What about the GI50 (SF-539) of the same compound?
**A.** 16 µM (inactive)

**Q.** And the GI50 (M14)?
**A.** 6.18 µM (inactive)

**Q.** And the GI50 (SK-MEL-28)?
**A.** 15.2 µM (inactive)

**Q.** And the GI50 (SNB-19)?
**A.** 40.9 µM (inactive)

**Q.** And the GI50 (NCI-H226)?
**A.** 20.3 µM (inactive)

**Q.** And the GI50 (Malme-3M)?
**A.** 4.55 µM (inactive)

**Q.** And the GI50 (MOLT-4)?
**A.** 0.569 µM (active)

**Q.** What about the GI50 (PC-3) of the same compound?
**A.** 25.9 µM (inactive)

**Q.** What about the GI50 (DLD-1) of the same compound?
**A.** 2.42 µM (inactive)

**Q.** What about the GI50 (OVCAR-8) of the same compound?
**A.** 12.1 µM (inactive)

**Q.** And the GI50 (SF-295)?
**A.** 18 µM (inactive)

**Q.** And the GI50 (UACC-62)?
**A.** 14.8 µM (inactive)
